This is an account of results in US20100016435A1, “HYBRID MOLECULES HAVING MIXED VITAMIN D RECEPTOR AGONISM AND HISTONE DEACETYLASE INHIBITORY PROPERTIES” (McGill University, priority 2006, published 2010).

One experiment has as its target HDAC6 (Homo sapiens, UniProt Q9UBN7). The settings on record: cited from earlier work.
Another experiment concerns the target T1, human VDR (Homo sapiens, UniProt P11473).
T1 construct: expressed in transfected cells; host or cells: COS7
T1 sequence (P11473 1-427): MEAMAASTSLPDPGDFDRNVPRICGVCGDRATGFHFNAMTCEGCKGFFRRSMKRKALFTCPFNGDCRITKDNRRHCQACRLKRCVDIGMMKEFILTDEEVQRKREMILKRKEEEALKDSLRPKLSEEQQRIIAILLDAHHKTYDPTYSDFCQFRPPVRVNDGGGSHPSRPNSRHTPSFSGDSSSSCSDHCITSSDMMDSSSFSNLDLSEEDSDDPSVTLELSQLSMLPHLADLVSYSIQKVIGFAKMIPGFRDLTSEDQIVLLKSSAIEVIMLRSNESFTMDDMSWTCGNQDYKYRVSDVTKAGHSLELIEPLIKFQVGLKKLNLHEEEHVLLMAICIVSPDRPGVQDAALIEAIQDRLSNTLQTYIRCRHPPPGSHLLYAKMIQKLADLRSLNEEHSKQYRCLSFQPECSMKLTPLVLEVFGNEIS
The experiment in a line: Reporter gene assay (VDRE-luciferase) in transiently transfected COS7 cells. The class given is cell-based. The procedure: FIG. 2 is an illustration of the vitamin D receptor agonist activity of 6 using a reporter gene assay in transiently transfected COS7 cells.
Hybrid molecule 6 was tested for calcitriol agonist activity using a reporter gene assay under standard conditions.^25,26 COS7 cells were transiently co-transfected with a plasmid expression vector for the human VDR, a plasmid vector expressing bacterial β-galactosidase from a constitutively active promoter (as an internal control for transfection efficiency), and a vector containing a luciferase reporter gene, under control of a previously described synthetic promoter composed of three high affinity VDREs (Vitamin D Response Elements) placed immediately upstream of a truncated promoter region from the herpes simplex virus thymidine kinase gene.^25 Cells were left overnight in the presence of DNA and transfection reagent (lipofectamine). The media were changed and cells were incubated in fresh media containing either vehicle (DMSO), 1 (100 nM), 3 (15 nM), 1 and 3 combined (100 nM/15 nM) or 6 (100 nM), and incubated a further 36 h.

In experiment [1] the test system is SCC4 cells. Kind of experiment: Antiproliferative activity in SCC4 cells. The settings on record: 3 alone, data not shown.
The test system of another experiment is SCC25 cells. Kind of experiment: Antiproliferative activity in SCC25 cells. Type of experiment: cell-based. The settings on record: 1 at 1 nM or 100 nM; 3 15 nM; combination 3 with 100 nM 1; FIG. 7B.
For experiment [2], the system named is SCC4 cells. The experiment in a line: Acidic β-galactosidase activity (marker of autophagy), X-Gal staining and 620 nm measurement. The settings on record: qualitative, FIG. 10A. Type of experiment: cell-based, human. The text has this: FIG. 10 is an illustration of the effects of 1, 3, 1+3 and 6 on the induction of acidic β-galactosidase activity, a marker of autophagy (A); FIG. 10 is an illustration of the effects 1, 3, 1+3 and 6 on the levels of β-galactosidase expression as obtained by measuring the indigo cleavage product of X-Gal at 620 nm (B).
Since it was observed that treatment with 1 could enhance cell death by autophagy (ref. 26), the effects of different treatments on the induction of acidic β-galactosidase activity, a marker of autophagy (FIG. 10A) was tested.

A further experiment relates to α-tubulin. The experiment in a line: α-Tubulin acetylation in SCC4 cells, Western blot. The settings on record: 3 15 nM; 36 or 39 10^−6 or 10^−7M; 6 h or 24 h, FIG. 6C. Type of experiment: cell-based, human. The text has this: (§1) FIG. 4 is an illustration of the HDAC inhibitory activity of 3 in the SCC4 cell line. FIG. 4A is an illustration of a western blot of nuclear and cytoplasmic extracts of SCC4 cells treated with vehicle (−), 1, or 3 alone or in combination, as indicated. The 55 kDa band corresponds to the molecular weight of tubulin. FIG. 4B illustrates a western blot probed with an antibody directed against acetylated histone H4 (AcH4) showing the effects of the treatments described in A on acetylation of histone H4. FIG. 4C illustrates western blots of the effects of treatments described in A on levels of total alpha-tubulin (left) and acetylated alpha-tubulin (right).
FIG. 6 is a comparison of the HDAC inhibitory activities of 1, 3, 6, 36 or 39 as assessed by their effects on acetylation of alpha-tubulin. In A, SCC4 cells were incubated with vehicle or compound 1 (10^−6M), 3 (15 nM), 6 (10^−6M) and 36 (10^−6M), as indicated for 6 h and protein extracts were probed for total α-tubulin (Tub.) or acetylated α-tubulin (AcTub.) by Western blotting. Blots for acetylated alpha-tubulin and total alpha-tubulin are shown. In B, SCC4 cells were incubated with vehicle or compound 3 (15 nM), 6 (10^−6M) or 36 (10^−6M) as indicated for 6 h or 24 h and protein extracts were probed for acetylated α-tubulin (AcTub.) by Western blotting. In C, SCC4 cells were incubated with vehicle or compounds 3 (15 nM), 36 (10^−6 or 10^−7M) or 39 (10^−6 or 10^−7M) as indicated for 6 h or 24 h and protein extracts were probed for total α-tubulin (tub.) or acetylated α-tubulin (AcTub.) by Western blotting.
(§2) In preliminary experiments, TSA-inducible protein acetylation was analyzed in nuclear and cytoplasmic extracts of SCC4 cells treated for 6 h with 1, 3, or 1 and 3 and subsequently probed by Western blotting for protein acetylation using an anti-acetyllysine antibody. […] Effects of 3 on histone acetylation specifically, were confirmed by probing for acetylation of histone H4 (FIG. 4B). […] However, it was not clear whether this corresponded to enhanced expression or acetylation. […] This was confirmed by probing cytoplasmic fractions with an antibody that recognized α-tubulin (FIG. 4C). Calcitriol (1) had no effect on the acetylation of α-tubulin, and none of the treatments had any substantial effect on total α-tubulin expression (FIG. 4C).
SCC4 cells were incubated with vehicle or compound as indicated for 6 h and cytoplasmic protein extracts were probed by Western blotting using a specific antibody for acetylated α-tubulin.
For orientation: A western blot detects proteins with antibodies after separation by electrophoresis.

Another experiment has as its system histone H4. Kind of experiment: Histone H4 acetylation, Western blot. The settings on record: SCC4 cells, 6 h. The class given is cell-based, human.
Description: as §1, §2

Experiment [3] relates to SCC4 cells. The experiment in a line: Immunocytochemical and morphological analysis (mitotic catastrophe). The class given is cell-based, human. From the text: FIG. 12 is an illustration of the immunocytochemical analysis of the effects of 1, 3, or 1 and 3 combined on SCC4 cells (A). […] Both phenotypes are characteristics of mitotic catastrophe. The lower panels (B) show cytoplasmic bridges between SCC4 cells treated with 1 and 3, consistent with the formation of the tubulin bridges seen above in A.
Assembly into microtubules is regulated by acetylation. […] Previous studies have shown that microtubule stabilizing agents can induce mitotic catastrophe (ref. 30). […] The formation of intercellular microtubular structures was consistent with observations in the light microscope of numerous intercellular bridges in cells treated with both 1 and 3 (FIG. 12B, arrows), but not in other treatment groups (not shown).

The subject of experiment [4] is SCC4 cells. Kind of experiment: Protein acetylation in nuclear and cytoplasmic extracts, Western blot with anti-acetyllysine antibody. Type of experiment: cell-based, human. The settings on record: 6 h.
Description: as §1, §2

Chain of HDAC6 (Q9UBN7 whole entry, species assumed): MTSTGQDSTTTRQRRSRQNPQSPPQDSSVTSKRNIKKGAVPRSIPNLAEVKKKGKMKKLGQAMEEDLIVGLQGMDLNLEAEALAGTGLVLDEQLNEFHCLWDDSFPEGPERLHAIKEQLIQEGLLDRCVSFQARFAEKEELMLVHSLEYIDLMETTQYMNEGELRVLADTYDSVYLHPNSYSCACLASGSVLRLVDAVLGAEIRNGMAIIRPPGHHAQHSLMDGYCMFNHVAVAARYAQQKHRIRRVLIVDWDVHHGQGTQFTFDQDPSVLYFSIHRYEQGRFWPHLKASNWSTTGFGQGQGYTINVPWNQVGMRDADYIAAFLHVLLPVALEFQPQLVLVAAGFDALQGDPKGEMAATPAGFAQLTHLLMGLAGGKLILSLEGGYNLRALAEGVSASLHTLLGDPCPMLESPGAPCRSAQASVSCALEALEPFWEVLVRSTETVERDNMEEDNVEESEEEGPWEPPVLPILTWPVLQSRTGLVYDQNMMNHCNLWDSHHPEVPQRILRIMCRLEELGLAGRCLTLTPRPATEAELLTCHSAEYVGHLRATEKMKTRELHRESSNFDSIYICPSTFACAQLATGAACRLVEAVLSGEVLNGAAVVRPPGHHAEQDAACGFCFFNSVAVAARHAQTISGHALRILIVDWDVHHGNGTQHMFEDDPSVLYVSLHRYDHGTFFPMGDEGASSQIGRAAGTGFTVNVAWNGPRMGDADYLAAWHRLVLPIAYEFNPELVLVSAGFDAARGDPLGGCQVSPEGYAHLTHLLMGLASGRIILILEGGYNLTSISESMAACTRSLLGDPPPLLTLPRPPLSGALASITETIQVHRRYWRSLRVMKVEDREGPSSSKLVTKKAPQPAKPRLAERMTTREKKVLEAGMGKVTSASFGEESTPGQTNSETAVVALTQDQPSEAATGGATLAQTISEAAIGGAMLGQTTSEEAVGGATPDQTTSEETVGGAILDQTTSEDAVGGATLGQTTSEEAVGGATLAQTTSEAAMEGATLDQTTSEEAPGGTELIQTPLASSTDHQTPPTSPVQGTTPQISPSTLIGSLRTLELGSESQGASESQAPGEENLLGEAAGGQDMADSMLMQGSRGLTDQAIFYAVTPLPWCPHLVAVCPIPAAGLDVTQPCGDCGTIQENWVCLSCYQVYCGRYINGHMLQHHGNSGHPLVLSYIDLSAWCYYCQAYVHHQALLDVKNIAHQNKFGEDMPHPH
Description for SCC25 cells: FIG. 7 is an illustration of the antiproliferative activities of 1 and 3, individually or in combination, in SCC4 cells (A) or in SCC25 cells (B) at the concentrations indicated.

As for `CC(/C=C/C(=O)NO)=C\[C@@H](C)C(=O)c1ccc(N(C)C)cc1` [compound 3, trichostatin A], the HDAC6 activity entry on HDAC6 is “can be blocked”. Besides, at human VDR (COS7, 36 h, 1 100 nM, 3 15 nM, 6 100 nM, not normalized), the “reporter gene activity (calcitriol agonist activity)” value is “no substantial effect”. Besides, the “expression from the internal control plasmid (β-galactosidase)” value on human VDR (COS7 cells) is on record as “modestly affects expression”. In addition, the SCC4 proliferation entry in the experiment with SCC4 cells [1] (50 nM) is “completely inhibited”. Further, the cell death result in the experiment with SCC4 cells [1] (concentrations higher than 50 nM) is “substantial cell death”. Further, the “SCC25 proliferation / sensitivity” value with SCC25 cells was “substantially less sensitive”. In addition, the “acidic β-galactosidase staining (X-Gal, pH 4.0), cytochemical” value with SCC4 cells [2] was “weak or relatively modest effects”. The “levels of acetylated alpha-tubulin normalized for total alpha-tubulin” value in the experiment with α-tubulin was “Elevated levels”. Moreover, in the experiment with histone H4, the “histone H4 acetylation” value is given as “markedly enhanced”. Further, the cell morphology result in the experiment with SCC4 cells [3] (FIG. 12) was “did not differ from control cells”. The “induction of mitotic catastrophe” value with SCC4 cells [3] (SCC4 cells) is given as “not 1 or 3 alone”. The “acetylation of a 55 kDa protein, likely tubulin” value in the experiment with SCC4 cells [4] (cytoplasmic extracts) was “markedly enhanced”. Also, the “acetylation of low molecular weight nuclear proteins” value in the experiment with SCC4 cells [4] (nuclear extracts) is on record as “markedly enhanced”.
